Experimental data published in ChEMBL document CHEMBL1201862, “PubChem BioAssay data set” (2004).
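Each compound was tested at five concentrations against cells in 96-well plates for 48 hours. Here, GI50 denotes the concentration required for 50% inhibition of growth.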 Active and inactive are the calls of the source. Cut-off read from the data, not from the text of the source: active = GI50 up to about 1.1 µM and inactive = higher.

Assays:
Assay in all cases: NCI tumour cell line growth inhibition, 48 h
[1] = system: LOX IMVI
[2] = system: EKVX
[3] = system: A549
[4] = system: SNB-75
[5] = system: SNB-19
[6] = system: NCI/ADR-RES
[7] = system: U-251
[8] = system: NCI-H522
[9] = system: SR
[10] = system: CAKI-1
[11] = system: CCRF-CEM
[12] = system: KM12
[13] = system: T47D
[14] = system: HOP-62
[15] = system: OVCAR-8
[16] = system: SK-MEL-5
[17] = system: RXF 393
[18] = system: SW-620
[19] = system: UO-31
[20] = system: M14

Measured: GI50

OCCn1cnc2c(SCc3ccccc3)ncnc21
inactive: [1] 61.1 µM | [2] > 100 µM | [3] > 100 µM | [4] > 100 µM | [5] > 100 µM | [6] > 100 µM | [7] 52.4 µM | [8] 97.9 µM | [9] 19.5 µM | [10] > 100 µM | [11] 39.1 µM | [12] > 100 µM | [13] > 100 µM | [14] > 100 µM | [15] > 100 µM | [16] > 100 µM | [17] > 100 µM | [18] > 100 µM | [19] > 100 µM | [20] > 100 µM

NC(Cc1ccccc1)c1nn[nH]n1 (stereo not given)
inactive: [1] > 100 µM | [2] > 100 µM | [3] > 100 µM | [4] > 100 µM | [5] > 100 µM | [6] > 100 µM | [7] > 100 µM | [8] > 100 µM | [9] > 100 µM | [10] > 100 µM | [11] > 100 µM | [12] > 100 µM | [13] > 100 µM | [14] > 100 µM | [15] > 100 µM | [16] > 100 µM | [17] > 100 µM | [18] > 100 µM | [19] > 100 µM | [20] > 100 µM

O/N=C1\CC2(N3CCOCC3)CCC1(Cc1ccccc1)CC2
inactive: [1] 2.55 µM | [2] > 100 µM | [3] > 100 µM | [4] 13.5 µM | [5] 24.1 µM | [6] 61.1 µM | [7] 19.4 µM | [8] 43.4 µM | [9] > 100 µM | [10] 64.3 µM | [11] > 100 µM | [12] > 100 µM | [13] 32 µM | [14] 23 µM | [15] 23.4 µM | [16] > 100 µM | [17] 21.1 µM | [18] > 100 µM | [19] > 100 µM | [20] > 100 µM

CCOC(=O)C(c1c[nH]c2ccccc12)(c1c[nH]c2ccccc12)c1c[nH]c2ccccc12
inactive: [1] 31.9 µM | [2] 37.7 µM | [3] 30.7 µM | [4] 20.4 µM | [5] 26.5 µM | [6] 82.6 µM | [7] 36.9 µM | [8] 27 µM | [9] 23.6 µM | [10] 29.4 µM | [11] 17.2 µM | [12] 28.5 µM | [13] 16.2 µM | [14] 39.6 µM | [15] 36.2 µM | [16] 34.4 µM | [17] 21.7 µM | [18] 19.8 µM | [19] 30.3 µM | [20] 28.3 µM

C=C(Br)CNC(=O)CCC(=O)NCC(=C)Br
inactive: [1] > 100 µM | [2] > 100 µM | [3] > 100 µM | [4] > 100 µM | [5] > 100 µM | [6] > 100 µM | [7] > 100 µM | [8] > 100 µM | [9] > 100 µM | [10] > 100 µM | [11] > 100 µM | [12] > 100 µM | [13] > 100 µM | [14] > 100 µM | [15] > 100 µM | [16] > 100 µM | [17] > 100 µM | [18] > 100 µM | [19] > 100 µM | [20] > 100 µM

CON(C(=O)OC(C)(C)C)c1ccccc1
inactive: [1] > 100 µM | [2] > 100 µM | [3] > 100 µM | [4] > 100 µM | [5] > 100 µM | [6] > 100 µM | [7] > 100 µM | [8] > 100 µM | [9] > 100 µM | [10] > 100 µM | [11] > 100 µM | [12] > 100 µM | [13] > 100 µM | [14] > 100 µM | [15] > 100 µM | [16] > 100 µM | [17] > 100 µM | [18] > 100 µM | [19] > 100 µM | [20] > 100 µM

C[N+]1(C)[C@@H]2CC[C@H]1C[C@@H](OC(=O)C(CO)c1ccccc1)C2 (stereo not given in full) [ATROPINE METHYLBROMIDE]
inactive: [1] > 100 µM | [2] > 100 µM | [3] > 100 µM | [4] > 100 µM | [5] > 100 µM | [6] > 100 µM | [7] > 100 µM | [8] > 100 µM | [9] > 100 µM | [10] > 100 µM | [11] > 100 µM | [12] > 100 µM | [13] > 100 µM | [14] > 100 µM | [15] > 100 µM | [16] > 100 µM | [17] > 100 µM | [18] > 100 µM | [19] > 100 µM | [20] > 100 µM
